Source: patent publication US12162913B2 (priority 2016, dated 2024)
“Also recorded” adds a separate entry of the source. Where two headings read alike, the source gives them in different places.

Tests used:
[1] = target: R. microplus nAChRα6 (Rma6) homopentamers (Rhipicephalus microplus, UniProt A0A223PM23); experiment: Two-electrode voltage clamp on Xenopus oocytes expressing Rmα6 homopentamers; format: cell-based
Procedure: (§1) The plasmids containing the sequences of choice were linearized using BeuI (Spel) FastDigest (ThermoFisher) restriction enzyme for 30 min at 37°, and an aliquot run on an agarose gel to check for complete linearization. The plasmid DNA was phenol:chloroform purified and ethanol precipitated. The pellet was re-suspended in deionized water. Capped RNA was synthesized using mMessage mMachine T7 kit from 1 μg linearized plasmid DNA, the sample phenol:chloroform purified and isopropanol precipitated. The pellet was re-suspended in deionized water to a concentration of 500 ng/μl, analysed on an agarose gel for integrity and stored at −80° C. until further use.
(§2) Xenopus laevis oocytes were purchased as whole ovaries from the European Xenopus Resource Centre (University of Portsmouth), delivered in less than 24 h in Modified Barth's Saline (MBS) on wet ice. Upon arrival, the oocytes were treated with 2 mg/ml collagenase type I (Sigma-Aldrich) in calcium-free Barth's solution (NaCl 88 mM, Tris-HCl 15 mM, NaHCO32.4 mM, MgCl2 0.82 mM, KCl 1 mM, pH 7.5) for 30 min at room temperature. The separated oocytes were rinsed thoroughly in calcium-free Barth's solution, manually de-folliculated and injected using a Drummond microinjector with 25 ng/oocyte capped RNA. The oocytes were incubated at 18° C. in calcium-containing ([…]) Barth's solution supplemented with 4 μg/ml Kanamycin, 50 μg/ml Tetracycline, 100 U/ml Penicillin and 100 μg/ml Streptomycin. Two-electrode voltage clamp recordings were performed after 3-5 days using an OC-725C oocyte clamp (Warner instruments) with the membrane potential clamped at −60 mV. The oocytes were continuously perfused with frog Ringer's solution (NaCl 115 mM, KCl 2.5 mM, CaCl2) 1.8 mM and HEPES 10 mM) and the dilutions of ligands prepared in Ringer's saline applied using a VC-8 multi-valve perfusion system (Warner Instruments). Following ligand application, the current required to maintain the membrane potential at −60 mV was measured and used for subsequent data analysis.
(§3) Two-electrode voltage clamp electrophysiology data acquisition was done using LabScribe software (iWorks Systems) and the data transferred to GraphPad Prism (GraphPad Software) for traces analysis and dose-response curve fitting.

[2] = target: R. microplus nAChRα5 (Rmα5) homopentamers (Rhipicephalus microplus, UniProt A0A223PM17, I539V); format: cell-based
R. microplus nAChRα5 (Rmα5) homopentamers, sequence (A0A223PM17 entry or part of it I539V): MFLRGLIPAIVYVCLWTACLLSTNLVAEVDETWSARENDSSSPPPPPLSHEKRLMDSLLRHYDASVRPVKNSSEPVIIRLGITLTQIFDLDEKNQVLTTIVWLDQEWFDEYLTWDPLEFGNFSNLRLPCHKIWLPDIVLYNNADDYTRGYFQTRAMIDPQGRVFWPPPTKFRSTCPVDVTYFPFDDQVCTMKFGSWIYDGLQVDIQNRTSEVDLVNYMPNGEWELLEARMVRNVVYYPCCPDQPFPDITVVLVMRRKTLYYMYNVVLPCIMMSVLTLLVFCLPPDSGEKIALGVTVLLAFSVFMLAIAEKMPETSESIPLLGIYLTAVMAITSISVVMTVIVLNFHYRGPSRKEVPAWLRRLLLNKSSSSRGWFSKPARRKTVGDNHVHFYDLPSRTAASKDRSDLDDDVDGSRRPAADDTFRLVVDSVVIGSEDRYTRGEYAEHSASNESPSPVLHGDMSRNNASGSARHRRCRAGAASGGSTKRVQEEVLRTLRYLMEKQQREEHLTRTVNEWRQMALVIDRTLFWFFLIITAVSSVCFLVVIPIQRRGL
Procedure: as §1, §2, §3

R. microplus nAChRα6 (Rma6) homopentamers, sequence (A0A223PM23 entry or part of it): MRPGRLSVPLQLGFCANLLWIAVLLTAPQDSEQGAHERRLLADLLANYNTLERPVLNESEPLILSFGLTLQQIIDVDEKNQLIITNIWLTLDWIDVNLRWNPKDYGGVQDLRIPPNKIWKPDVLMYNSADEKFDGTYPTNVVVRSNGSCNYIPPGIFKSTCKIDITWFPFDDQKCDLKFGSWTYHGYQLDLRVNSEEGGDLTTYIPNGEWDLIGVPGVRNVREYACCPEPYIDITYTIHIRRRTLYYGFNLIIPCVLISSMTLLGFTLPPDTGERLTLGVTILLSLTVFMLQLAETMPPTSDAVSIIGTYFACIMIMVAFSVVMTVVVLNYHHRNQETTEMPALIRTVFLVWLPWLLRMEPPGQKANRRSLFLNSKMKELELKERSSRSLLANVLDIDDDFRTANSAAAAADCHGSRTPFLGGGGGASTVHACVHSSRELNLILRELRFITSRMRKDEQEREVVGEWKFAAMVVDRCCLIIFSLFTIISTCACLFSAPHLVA

| Molecule | action on Rma6 receptor [1] | character of responses on Rma6 [1] | action on Rma6 receptor ([1]; listed as imidacloprid) | EC50 ([1]; membrane potential clamped at −60 mV, dose-response curve, read-out: EC50 (activation of Rma6 receptor)) | EC50 of spinosad lower than ACh EC50 (fold) ([2]; Rmα5 receptor) | action on Rmα5 receptor ([2]; Xenopus oocytes) | character of responses on Rmα5 ([2]; Xenopus oocytes, ACh 300 μM, spinosad 30 μM representative traces) | time to response plateau ([2]; during application) | time to first signs of depolarization ([2]; during perfusion) |
| --- | --- | --- | --- | --- | --- | --- | --- | --- | --- |
| O=[N+]([O-])NC1=NCCN1Cc1ccc(Cl)nc1 [Imidacloprid, imidacloprid] | partial agonist | small, non-desensitizing responses | induced responses | – | – | – | – | – | – |
| CC(=O)OCC[N+](C)(C)C [ACh, acetylcholine] | – | – | – | 1970 ± 1200 nM | – | – | – | – | – |
| spinosad | does not directly activate; also recorded: type II allosteric modulator | – | – | – | over 10 times | higher efficacy than ACh; also recorded: agonist | large and also non-desensitizing | around 30 s | about 15 s |
